The values below come from US8633197B2, “Piperidine/piperazine derivatives” (Janssen Pharmaceutica N.V., priority 2007, dated 2014).

SMILES strings stand for the structures.

The target of one data set is T1, human DGAT1 (Homo sapiens, UniProt O75907).
T1 construct: FLAG (N); made in house; host or cells: SF9 insect cells (pFastBac baculovirus); total cell membranes used
T1 sequence (O75907 1-488): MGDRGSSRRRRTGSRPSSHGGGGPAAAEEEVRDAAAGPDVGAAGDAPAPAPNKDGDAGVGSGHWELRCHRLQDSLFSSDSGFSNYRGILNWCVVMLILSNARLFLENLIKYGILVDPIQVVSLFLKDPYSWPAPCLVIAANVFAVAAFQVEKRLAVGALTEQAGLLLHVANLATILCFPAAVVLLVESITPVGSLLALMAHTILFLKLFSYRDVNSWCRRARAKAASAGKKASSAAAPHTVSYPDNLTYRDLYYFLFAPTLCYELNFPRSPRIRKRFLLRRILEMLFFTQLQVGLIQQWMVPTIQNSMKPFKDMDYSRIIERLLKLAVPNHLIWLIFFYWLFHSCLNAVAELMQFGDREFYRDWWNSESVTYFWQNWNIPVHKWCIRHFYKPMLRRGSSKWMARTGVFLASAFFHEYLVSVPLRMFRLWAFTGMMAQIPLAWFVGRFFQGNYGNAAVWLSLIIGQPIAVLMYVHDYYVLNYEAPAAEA
Briefly: DGAT1 FlashPlate assay: inhibition of DGAT1 activity in membrane preparations. It counts as biochemical. Conditions: IC50 values expressed in M. The text has this:
The inhibiting activity of the present compounds on DGAT1 activity was screened in a single well procedure assay using DGAT1 comprising membrane preparations and DGAT1 substrate comprising micelles and determining formed radio-active triacylglycerol coming in close proximity of a flashplate surface by radio luminescence.
Said assay is described in full detail in WO2006/067071, the content of which is incorporated herein by reference.
By DGAT1 activity is meant the transfer of coenzyme A activated fatty acids to the 3-position of 1,2-diacylglycerols, thus forming a triglyceride molecule, by enzyme DGAT1.
human DGAT1 (NM012079.2) was cloned into the pFastBac vector, containing translation start, a FLAG-tag at the N-terminus as described in literature and a viral Kozak sequence (AAX) preceding the ATG to improve expression in insect cells. Expression was done as described in literature (Cases, S., Smith, S. J., Zheng, Y., Myers H. M., Lear, S. R., Sande, E., Novak, S., Collins, C., Welch, C. B., Lusis, A. J., Erickson, S. K. and Farese, R. V. (1998) Proc. Natl. Acad. Sci. USA 95, 13018-13023.) using SF9 cells.
72 h transfected SF9 cells were collected by centrifugation (13000 rpm-15 min-4° C.) and lysed in 2×500 ml lysisbuffer (0.1M Sucrose, 50 mM KCl, 40 mM KH2PO4, 30 mM EDTA pH 7.2. Cells were homogenized by cell disruptor. After centrifugation 1380 rpm-15 min-4° C. (SN discarded), pellet was resuspended in 500 ml lysisbuffer and total cell membranes collected by ultracentrifugation at 34000 rpm (100 000 g) for 60 min (4° C.). The collected membranes were resuspended in lysis buffer, divided in aliquots and stored with 10% glycerol at −80° C. until use.
Add 1 ml dioleoyl-sn-glycerol (10 mg/ml) to 10 ml of L-α-phosphatidylcholine (1 mg/ml) and 10 ml of L-α-phosphatidyl-L-serine (1 mg/ml) in a thick glass recipient. Evaporate under nitrogen and put on ice for 15 minutes. Reconstitute in 10 ml Tris/HCl (10 mM, pH 7.4) by sonication on ice. The sonification process consists of sonification cycles of 10 seconds in the sonification bath followed by 10 seconds cool down on ice and repeating this sonification cycle till a homogeneous solution is obtained (takes about 15 minutes). The thus obtained micelles are stored at −20° C. till later use and contain DAG at a final concentration of 1.61 mM.
• a) Assaybuffer • 50 mM Tris-HCl (pH 7.4), 150 mM MgCl2, 1 mM EDTA, 0.2% BSA. • b) N-ethylmaleimide, 5M • Dissolve 5 g into a final volume of 8 ml DMSO 100% and store at −20° C. in aliquots till later use. • c) Substrate mix (for 1 384 well plate=3840 μl) • 612 μl micelles stock (51 μM final) • 16.6 μl oleoylCoA 9.7 mM • 23 μl [^3H]-oleoylCoA (49 Ci/mmol, 500 μCi/ml) 3188.4 μl Tris pH 7.4, 10 mM • d) Enzyme mix (for 1 384 well plate=3520 μl) (5 μg/ml) • Add 11.73 μl of DGAT membrane stock (1500 μg/ml stock) to 3508 μl assay buffer. • e) Stop mix (for 1 384 well plate=7.68 ml) (250 mM) • Add 384 μl of N-ethylmaleimide (5M) to 3.456 ml DMSO 100%, and further dilute 3.84 ml of said solution with 3.84 ml DMSO 10%. Method
DGAT activity in membrane preparations was assayed in 50 mM Tris-HCl (pH 7.4), 150 mM MgCl2, 1 mM EDTA and 0.2% BSA, containing 50 μM DAG, […] PC/PS and 8.4 μM [^3H]-oleoylCoA (at a specific activity of 30 nCi/well) in a final volume of 50 μl in 384-well format using the red shifted Basic Image FlashPlate™ (Perkin Elmer Cat. No. SMP400).
In detail, 10 μl enzyme mix and 10 μl substrate mix were added to 30 μl of assay buffer, optionally in the presence of 1 μl DMSO (blank and controls) or 1 μl of the compound to be tested. This reaction mixture was incubated for 120 minutes at 37° C. and the enzymatic reaction stopped by adding 20 μl of the stop mix. The plates were sealed and the vesicles allowed to settle overnight at room temperature. Plates were centrifuged for 5 minutes at 1500 rpm and measured in Leadseeker. […]

With `Cc1cc(C)n(-c2cccc(C(=O)Nc3ccc(N4CCN(/C(=N\C#N)Nc5c(Cl)cc(CN6CCCC6)cc5Cl)CC4)cc3)c2)n1` [Compound 12], the “pIC50 (mean)” value at human DGAT1 stood at 7.84. `Cc1ccccc1N/C(=N/C#N)N1CCN(c2ccc(NC(=O)CCCc3ccccc3)cc2)CC1` [Compound 4]: inhibition against human DGAT1 was half-maximal at 36.3 nM (IC50). Regarding `COc1ccc(CC(=O)Nc2ccc(N3CCN(/C(=N\C#N)Nc4c(Cl)cc(CN5CCCC5)cc4Cl)CC3)cc2)cc1` [Compound 11], the melting point (in general, the temperature of the solid-liquid transition) was determined as 222.4 °C. In addition, the “pIC50 (mean)” value against human DGAT1 worked out at 8.16. As for `N#C/N=C(/Nc1c(Cl)cccc1Cl)N1CCN(c2ccc(NC(=O)CCCc3ccccc3)cc2)CC1` [Compound 1], at human DGAT1, 9.12 nM corresponded to half-maximal inhibition (IC50). Compound `COc1ccc(CC(=O)Nc2ccc(N3CCN(/C(=N\C#N)Nc4c(C)cccc4Cl)CC3)cc2)cc1` [Compound 8] showed a melting point of 206.9 °C. In addition, on human DGAT1, the “pIC50 (mean)” value came to 8.23. In turn, `Cc1ccccc1-c1cccc(C(=O)Nc2ccc(N3CCN(/C(=N\C#N)Nc4c(Cl)cc(CN5CCCC5)cc4Cl)CC3)cc2)c1` [Compound 6] had a melting point of 217.1 °C. Also, on human DGAT1, the IC50 (commonly the midpoint of a concentration-inhibition curve) is 2.4 nM.

In turn, `CCCCCCC(=O)Nc1ccc(N2CCN(/C(=N\C#N)Nc3ccc(C(=O)OC)cc3Cl)CC2)cc1` [Compound 14] registered a melting point of 191.8 °C. In addition, the “pIC50 (mean)” value on human DGAT1 was found to be 7.24. Turning to `COC(=O)c1ccc(N/C(=N/C#N)N2CCN(c3ccc(NC(=O)c4cccc(N5CCCC5)c4)cc3)CC2)c(Cl)c1` [Compound 9], the melting point was found to be 220.3 °C. On human DGAT1, this compound had an IC50 of 6.31 nM. Compound `CC(=O)OCC(=O)Nc1ccc(N2CCN(/C(=N\C#N)Nc3c(F)cccc3Cl)CC2)cc1` [Compound 16] yielded a melting point of 209 °C. Besides, on human DGAT1, the “pIC50 (mean)” value came to 6.79.

`Cc1cccc(Cl)c1N/C(=N/C#N)N1CCN(c2ccc(NC(=O)c3ccc(N4CCN(C)CC4)cc3)cc2)CC1` [Compound 17]: the melting point stood at 285.1 °C. Moreover, at human DGAT1, the “pIC50 (mean)” value is on record as 6.64.

`CN1CCN(C(=O)c2cc(Cl)c(N/C(=N/C#N)N3CCN(c4ccc(NC(=O)c5cccc(N6CCCC6)c5)cc4)CC3)c(Cl)c2)CC1` [Compound 7] had an IC50 against human DGAT1 of 5.25 nM. Turning to `CN1CCN(c2ccc(C(=O)Nc3ccc(N4CCN(/C(=N\C#N)Nc5ccccc5Cl)CC4)cc3)cc2)CC1` [Compound 18], the melting point was determined as 244.2 °C. In addition, at human DGAT1, the “pIC50 (mean)” value turned out to be 6.10.

`COCCN1CCN(C(=O)c2cc(Cl)c(N/C(=N/C#N)N3CCN(c4ccc(NC(=O)Cc5ccc(OC)cc5)cc4)CC3)c(Cl)c2)CC1` [Compound 10] displayed a melting point of 205.3 °C. Moreover, the “pIC50 (mean)” value at human DGAT1 amounted to 8.17. In turn, `N#C/N=C(/Nc1ccc(C(=O)O)cc1Cl)N1CCN(c2ccc(NC(=O)CCCc3ccccc3)cc2)CC1` [Compound 13] had a melting point of 208.7 °C. In addition, at human DGAT1, the “pIC50 (mean)” value is reported as 7.58. On human DGAT1, `N#C/N=C(/Nc1ccccc1)N1CCN(c2ccc(NC(=O)CCCc3ccccc3)cc2)CC1` [Compound 5] had an IC50 of 1350 nM. `COCCN1CCN(C(=O)c2cc(Cl)c(N/C(=N/C#N)N3CCN(c4ccc(NC(=O)CNc5ccccc5)cc4)CC3)c(Cl)c2)CC1` [Compound 15] gave a melting point of 211.9 °C. Further, the “pIC50 (mean)” value on human DGAT1 is reported as 7.20. For `COCCN1CCN(C(=O)c2cc(Cl)c(N/C(=N/C#N)N3CCN(c4ccc(NC(=O)c5ccccc5N5CCN(C)CC5)cc4)CC3)c(Cl)c2)CC1` [Compound 19], in that order: 254.2 °C and 5.54. The compound `N#C/N=C(/Nc1ccccc1Cl)N1CCN(c2ccc(NC(=O)CCCc3ccccc3)cc2)CC1` [Compound 3] gave an IC50 against human DGAT1 of 33.9 nM. Consider `N#C/N=C(\Oc1ccccc1)N1CCN(c2ccc(NC(=O)CCCc3ccccc3)cc2)CC1` [Compound 2], for which, at human DGAT1, the IC50 is 1820 nM.
